The values that follow come from US20250230193A1, “CYCLIC COMPOUND HAVING SELECTIVE KRAS INHIBITORY EFFECT ON HRAS AND NRAS” (CHUGAI SEIYAKU KABUSHIKI KAISHA, priority 2022, published 2025).

Assay [1] concerns the target GDP-bound HRAS wild-type protein (Homo sapiens, UniProt P01112). The experiment in a line: Binding to HRAS by surface plasmon resonance (SPR), Single Cycle Kinetics.
Assay [2] deals with GDP-bound NRAS wild-type protein (Homo sapiens, UniProt P01111). The assay can be described thus: Binding to NRAS by surface plasmon resonance (SPR), Single Cycle Kinetics.
Where [3] appears, read: KD ratio HRAS/KRAS, class symbols.
Where [4] appears, read: KD ratio NRAS/KRAS, class symbols.

*1 amine or outer side, *2 acyl side, *3 side chain or, on linkers, in order; H or OH if unused. Where a SMILES comes first, the peptide text is derived from it. Bridges are numbered along the chain shown (N, C = ends). [ ]: non-standard residue; d: D form. The star is where a group is joined. hPhe(3,5-F2-4-CF3) = N[C@@H](CCc1cc(F)c(C(F)(F)F)c(F)c1)C(=O)O; hPhe(3-Cl-4-CF3) = N[C@@H](CCc1ccc(C(F)(F)F)c(Cl)c1)C(=O)O; NPrPhe(4-CF3) = CCCN[C@@H](Cc1ccc(C(F)(F)F)cc1)C(=O)O; X16 = O=C([C@@H](N[*:1])C1CC(F)(F)C1)[*:2]; NMeGly(cPent) = CN[C@H](C(=O)O)C1CCCC1; Pro(4,4-F2) = O=C(O)[C@@H]1CC(F)(F)CN1; NMeD = CN[C@@H](CC(=O)O)C(=O)O; NMeL = CN[C@@H](CC(C)C)C(=O)O; Morpholide = C1CN(*)CCO1; Ac5c = NC1(C(=O)O)CCCC1; Aze = O=C(O)[C@@H]1CCN1; Ac4c = NC1(C(=O)O)CCC1; Sar = CNCC(=O)O

Chain of GDP-bound HRAS wild-type protein (P01112 whole entry): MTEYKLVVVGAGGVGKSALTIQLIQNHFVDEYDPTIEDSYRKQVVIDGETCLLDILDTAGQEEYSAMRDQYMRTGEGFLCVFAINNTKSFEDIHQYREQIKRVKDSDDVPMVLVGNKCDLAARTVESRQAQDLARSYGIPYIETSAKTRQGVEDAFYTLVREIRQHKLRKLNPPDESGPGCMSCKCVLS
Chain of GDP-bound NRAS wild-type protein (P01111 whole entry): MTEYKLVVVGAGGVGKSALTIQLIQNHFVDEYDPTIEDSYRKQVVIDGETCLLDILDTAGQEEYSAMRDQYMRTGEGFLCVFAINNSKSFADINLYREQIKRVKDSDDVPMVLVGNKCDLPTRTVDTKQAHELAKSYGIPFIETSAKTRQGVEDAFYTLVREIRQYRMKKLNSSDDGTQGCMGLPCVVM

Turning to `CCC[C@H]1C(=O)N[C@@H]([C@@H](C)CC)C(=O)N(C)CC(=O)N(C)[C@H]2C/C=C\CCN(C2=O)[C@@H](Cc2ccc(C)cc2)C(=O)N(C)CC(=O)N[C@@H](CCc2ccc3sc(F)c(C)c3c2)C(=O)N2C[C@H](OCC)C[C@H]2C(=O)NC2(CC(C)(C)C2)C(=O)N(C)[C@@H](C(CC)CC)C(=O)N(C)[C@H](C(=O)N(C)C)CC(=O)N1C` [PP2894], the “HRAS/KRAS (ratio of KD value with respect to GDP-bound HRAS wild-type protein to KD value with respect to KRAS)” value in assay [1] (setting [3]) was “A (a compound having 10 or more and less than 20 is denoted as A)”. Moreover, in assay [2] (setting [4]), the “NRAS/KRAS (ratio of KD value with respect to GDP-bound NRAS wild-type protein to KD value with respect to KRAS)” value was “AA (a compound having 20 or more is denoted as AA)”.
`CCCN1C(=O)CN(C)C(=O)CNC(=O)[C@H]([C@@H](C)CC)NC(=O)[C@H](CC(C)C)N(C)C(=O)C[C@@H](C(=O)N2CCOCC2)NC(=O)[C@H](C2CCCC2)N(C)C(=O)C2(CCC2)NC(=O)[C@@H]2CC(F)(F)CN2C(=O)[C@H](CCc2ccc(C(F)(F)F)c(Cl)c2)NC(=O)CN(C)C(=O)[C@@H]1Cc1ccc(C(F)(F)F)cc1` [PP0328] ([NMeL]IG[Sar][NPrPhe(4-CF3)][Sar][hPhe(3-Cl-4-CF3)][Pro(4,4-F2)][Ac4c][NMeGly(cPent)]D-Morpholide; lactam N-11): the “HRAS/KRAS (ratio of KD for GDP-bound HRAS wild-type to KD for KRAS)” value in assay [1] (KD ratio HRAS/KRAS, SPR) is “B (a compound having 3 or more and less than 10 is denoted as B)”. Further, the “NRAS/KRAS (ratio of KD for GDP-bound NRAS wild-type to KD for KRAS)” value in assay [2] (KD ratio NRAS/KRAS, SPR) is “B (a compound having 3 or more and less than 10 is denoted as B)”.
On to `CCCN1C(=O)CN(C)C(=O)[C@@H]2CCN2C(=O)[C@H](C2CC(F)(F)C2)NC(=O)[C@H](CC(C)C)N(C)C(=O)C[C@@H](C(=O)N2CCOCC2)N(C)C(=O)[C@H](C2CCCC2)N(C)C(=O)C2(CCCC2)NC(=O)[C@@H]2CCCN2C(=O)[C@H](CCc2cc(F)c(C(F)(F)F)c(F)c2)NC(=O)CN(C)C(=O)[C@@H]1Cc1ccc(C(F)(F)F)cc1` [PP0786] ([NMeL][X16][Aze][Sar][NPrPhe(4-CF3)][Sar][hPhe(3,5-F2-4-CF3)]P[Ac5c][NMeGly(cPent)][NMeD]-Morpholide; lactam N-11), for which, in assay [1] (KD ratio HRAS/KRAS, SPR), the “HRAS/KRAS (ratio of KD value with respect to GDP-bound HRAS wild-type protein to KD value with respect to KRAS)” value was “B (a compound having 3 or more and less than 10 is denoted as B)”. Further, in assay [2] (KD ratio NRAS/KRAS, SPR), the “NRAS/KRAS (ratio of KD value with respect to GDP-bound NRAS wild-type protein to KD value with respect to KRAS)” value was “B (a compound having 3 or more and less than 10 is denoted as B)”.
Take `C#CC[C@H]1C(=O)N[C@@H]([C@@H](C)CC)C(=O)N(C)CC(=O)N(C)[C@H]2C/C=C\CCN(C2=O)[C@@H](Cc2ccc(C(F)(F)F)cc2)C(=O)N(C)CC(=O)N[C@@H](CCc2ccc(C(F)(F)F)c(Cl)c2)C(=O)N2C[C@H](OCC)C[C@H]2C(=O)NC2(CC(C)(C)C2)C(=O)N(C)[C@@H](C2CCCC2)C(=O)N(C)[C@H](C(=O)N(C)CC)CC(=O)N1C` [PP2844]: in assay [1] (setting [3]), the “HRAS/KRAS (ratio of KD value with respect to GDP-bound HRAS wild-type protein to KD value with respect to KRAS)” value is “A (a compound having 10 or more and less than 20 is denoted as A)”. Moreover, in assay [2] (setting [4]), the “NRAS/KRAS (ratio of KD value with respect to GDP-bound NRAS wild-type protein to KD value with respect to KRAS)” value is “A (a compound having 10 or more and less than 20 is denoted as A)”.
As to `CCO[C@@H]1C[C@H]2C(=O)NC3(CCC3)C(=O)N(C)[C@@H](C3CCCC3)C(=O)N(C)[C@H](C(=O)N(C)C)CC(=O)N(C)[C@@H](Cc3ccc(C)cc3)C(=O)N[C@@H]([C@@H](C)CC)C(=O)N(C)CC(=O)N(C)[C@H]3CCCCCN(C3=O)[C@@H](Cc3ccc(C(F)(F)F)cc3)C(=O)N(C)CC(=O)N[C@@H](CCc3cc(F)c(C(F)(F)F)c(F)c3)C(=O)N2C1` [PP0943], the “HRAS/KRAS (ratio of KD value with respect to HRAS to KD value with respect to KRAS)” value in assay [1] (KD ratio, GDP-bound HRAS wild-type vs GDP-bound KRAS wild-type, SPR) was “B (a compound having 3 or more and less than 10 is denoted as B)”. In assay [2] (KD ratio, GDP-bound NRAS wild-type vs GDP-bound KRAS wild-type, SPR), the “NRAS/KRAS (ratio of KD value with respect to NRAS to KD value with respect to KRAS)” value was “B (a compound having 3 or more and less than 10 is denoted as B)”.
